Reference: patent US20050187188A1, “Methods for the treatment of a traumatic central nervous system injury” (Emory University, priority 2000, published 2005)

Experiments:
[1] = system: rats with bilateral contusions of the medial prefrontal cortex; assay: Bilateral sensory neglect (BSN) task, Example 6; assay type: in vivo, rat; conditions: 3 days (LP3); 6 and 20 days post injury
Experimental: Male Sprague-Dawley rats (300 g) were housed individually in wire cages and kept on a reverse light-dark cycle (0800-2000 h). Animals were assigned to one of four groups: (1) lesion (n=7); (2) lesion +3 days progesterone (LP3; n=7); (3) lesion +5 days progesterone (LP5; n=7); and (4) Sham (n=8). All procedures involving animals conformed to guidelines set forth in the Guide for the Care and Use of Laboratory Animals (U.S. Department of Health and Human Services, Pub no. 85-23, 1985) and were approved by the Emory University Institutional Animal Care and Use Committee.
Bilateral contusions of the medial prefrontal cortex were created by a pneumatic impactor device as previously described. […]
Experienced individuals who were blind to treatment conditions of the study conducted all histological and behavioral analyses. All data were tested for normality and homoschedasticity before being analyzed by parametric analysis of variance (ANOVA). MWM results were analyzed using separate mixed-factorial (4 groups×5 days) analysis of variance (ANOVA) on each of the two 5-day testing periods (acquisition and retention respectively). Results of the BSN task were analyzed using the mixed-factorial ANOVA (4 groups×2 post-injury trials). […]
Measures of attentional abilities, using a bilateral sensory neglect (BSN) task, were recorded one day prior to surgery (baseline) and on postsurgical days 6 and 20. […]

[2] = system: blood-brain barrier (BBB); conditions: in vitro; macromolecules vs ions such as sodium; cited from earlier work
traumatic brain injury = assay: Morris water maze dose response, progesterone in cyclodextrin vehicle, Example 7; assay type: in vivo, rat
Experimental: The Morris Water Maize (MWM) consisted of a circular tank with a diameter of 133 cm filled with opaque water (20±1° C.; non-toxic Artista™ nontoxic white tempura paint) to a depth of 64 cm (23 cm from top of tank). A platform (11 cm×11 cm) was submerged to a depth of 2 cm and placed approximately 28 cm from the wall of the pool in the center of the northeast quadrant. The position of the platform will remain constant throughout the experiment. MWM testing began seven days after surgery. Each animal was tested for a total of 10 days (2 trials per day) in two 5-day blocks. At the start of each trial, the experimenter placed a rat into the pool at one of four starting positions, and at the same time, activate the computer-interfaced camera tracking system. Each rat was allowed to swim in the pool until it reached the platform or until 90 seconds has passed. […] Once a rat found the platform, it was left there for 20 seconds and then removed from the pool for an intertrial interval of 20 seconds. Each rat was then placed in the pool at another start position and the procedure described earlier was repeated. The performance of each rat was measured in terms of latency to platform, length of path to platform, and swim strategy, i.e., percent of total time spent in the outer versus inner annuli.
Surgery to induce a traumatic brain injury was performed as outlined in Example 1. Behavior testing using the Morris Water Maize was performed as outlined in Example 1 and the methods for the tactical adhesive removal were performed as outlined in Example 4.

IL-1β = IL-1β mRNA expression in brain tissue after contusion, real-time quantitative PCR; assay type: in vivo, rat
Excerpt: (§1) Neurosteroid injections were given at 1 hr and 6 hrs after the contusions, and continued once a day for up to 5 consecutive days post-injury.
(§2) Adult male SD rates received either bilateral prefrontal cortical contusions or sham surgeries. The neurosteroid injections were given at 1 hr and 6 hr after the contusions and continued once a day for up to 5 consecutive days post-injury. At 3 hr, 8 hr, 12 hr and 6 days post-injury, the rats were killed and their brains were processed for mRNA extraction. Expression of mRNA for IL-1β and TNFα were assessed using real-time quantitative PCR.

ischemic injury = conditions: following ischemic injury in rats; cited from earlier work
TNFα = TNFα mRNA expression in brain tissue after contusion, real-time quantitative PCR; assay type: in vivo, rat; conditions: 3 hours and 6 days post-injury
Excerpt: as §1, §2

CC(=O)[C@H]1CC[C@H]2[C@@H]3CCC4=CC(=O)CC[C@]4(C)[C@H]3CC[C@]12C [progesterone]
BSN task performance [1]: impaired on this task compared to control animals | permeability of the BBB [2]: reduce the permeability of the BBB to macromolecules, but not ions | Morris water maze performance (traumatic brain injury; high dose 32 mg/kg in a cyclodextrin-containing vehicle): did not show any beneficial effect | Morris water maze performance (traumatic brain injury; low dose 8 mg/kg in a cyclodextrin-containing vehicle): consistent improvement in Morris water maze performance | Morris water maze performance (traumatic brain injury; moderate dose 16 mg/kg in a cyclodextrin-containing vehicle): consistent improvement in Morris water maze performance | IL-1β mRNA expression (IL-1β; 3 hours and 6 days post-injury): reduced the expression of both IL-1β and TNFα | IL-1β mRNA expression (IL-1β; 8 hrs post-injury): but not progesterone, enhanced | cell damage and neurological deficit (ischemic injury): reduce cell damage and neurological deficit | TNFα mRNA expression (TNFα): reduced the expression of both IL-1β and TNFα
